Source: US11638424B2, “Mosquito attractant formulations and uses thereof” (priority 2017, dated 2023)

What was measured:
[1] = tested on: Plasmodium falciparum (NF54 strain); test: Mosquito infectious feed (P. falciparum oocyst and sporozoite infection in mosquitoes); assay type: in vivo
Experimental: A strain of the human malaria parasite P. falciparum, denoted NF54 (T. Ponnudurai, et al., Trop Geogr Med, 33, 50-54 (1981); kindly donated by Klays Berzins, Stockholm University), known to produce gametocytes infectious to mosquitoes (D. Walliker, paper presented at the Symposia on Molecular and Cellular Biology New Series 42, UCLA (1987)), was used for all experimental infections. Parasites were cultured in vitro according to standard protocols (W. Trager and J. B. Jensen, Science, 193, 673-675 (1976)) at 5% haematocrit in complete RPMI-1640 medium with 10% human serum under a gas environment of 1% O2, 3% CO2 and 96% N2 (Labline, Goteborg, Sweden). The culture medium was replaced daily and parasitaemia assessed using Giemsa staining every two days (ibid.). When the parasitaemia reached ˜6% (approximately 2 days after initiating the culture), cultures were diluted with a freshly made 5% haematocrit mixture of RBCs/complete medium. Asexual, synchronised trophozoites were fed to mosquitoes at 5% parasitaemia.
Plasmodium falciparum gametocyte cultures (NF54 strain) were set up at 0.5-0.7% parasitaemia, 6% haematocrit in complete RPMI medium, according to standard procedures (R. Carter, et al. Methods Mol Biol, 21, 67-88 (1993)). For each infectious feeding, a mixture of gametocytes from 14- and 17-day gametocyte cultures were used (ibid.). On the day of experimental infection, uninfected RBCs were supplemented with P. falciparum gametocytes to a final gametocytaemia of approximately 3%, which is known to generate good infection prevalence (>50% in A. gambiae s.s. mosquitoes; ibid.). To measure the effect of HMBPP on parasite infectiousness, two groups of approximately 210 mosquitoes were fed on mature gametocyte-infected red blood cells (giRBCs) with or without HMBPP using a membrane feeder, as previously described (ibid.). Gametocyte density was kept equal in control and treatments. To give the final gametocytaemia of 3% in each tubes, on the day of feed, the final mature gametocytaemia was calculated in cultures and then the volume of gametocyte inoculum was estimated per 1 ml of blood. The gametocyte inoculum was prepared using an equal volume (˜400 μl) of the gametocyte mixture was added to 1 ml of each of the blood treatments (with/without HMBPP). Adding a fixed volume of well-mixed gametocyte culture to a fixed volume of each blood treatment, it was ensured that parasite density (no. gametocytes per ml) was constant in both groups.

[2] = tested on: A. gambiae sensu lato; test: Persistency (landing, probing and initiating feeding) within 5 min on cell-free meals; assay type: in vivo
Experimental: Fifty mosquitoes were isolated in three separate cages (8 cm internal diameter×10 cm in height) covered with netting, and fed on 1 ml of control RBCs, hRBCs or giRBCs, respectively. […] For each group, the number of fully fed mosquitoes compared to unfed controls was immediately recorded. In another set of feeding experiments, serum or a 0.9% physiological saline solution (NaCl, pH 7.4), either with or without 10 μM HMBPP, were offered to mosquitoes during a 5 min feeding window, and the number of fed mosquitoes recorded every minute for each cage separately. In the saline experiment, an additional treatment of 10 μM IPP in NaCl was included.

[3] = tested on: human Vγ9Vδ2 T-cells; settings: cited from earlier work

C/C(=C\COP(=O)(O)OP(=O)(O)O)CO [HMBPP, (E)-4-hydroxy-3-methyl-but-2-enyl pyrophosphate]
oocyst prevalence (proportion of oocyst-carrying mosquitoes) ([1]; giRBCs with additional HMBPP, gametocyte density 3%): ~100%
sporozoite intensity (number of sporozoites per salivary gland) ([1]; giRBCs with vs without HMBPP): significantly higher
oocyst intensity (number of oocyst per midgut) ([1]; giRBCs with vs without HMBPP, 10 dpi, FIG. 3D): higher
sporozoite prevalence (proportion of sporozoite-carrying mosquitoes) ([1]; giRBCs with vs without HMBPP, 14 dpi, FIG. 3E): significantly higher
oocyst prevalence, difference between treatments ([1]; giRBCs with vs without additional HMBPP): not significantly different
persistency / phagostimulatory effect in physiological salt solution ([2]; 0.9% NaCl, 10 μM, 5 min, FIG. 1F): generated a similar effect
percent persistency within 5 min (females that landed and initiated probing and feeding) ([2]; serum with 10 μM HMBPP (serum alone 20%), FIG. 1E): Approximately 80%
activation of human Vγ9Vδ2 T-cells [3]: highly potent activator
